# Experimental data: ChEMBL document CHEMBL4145512, “Design, synthesis and biological evaluation of new coumarin-dithiocarbamate hybrids as multifunctional agents for the treatment of Alzheimer's disease” (Eur J Med Chem, 2018)
# Calls of active or inactive are those of the source. The rule behind the calls is not given here.
# How the values were obtained:
# [1] = target: BuChE (butyrylcholinesterase) (Homo sapiens, UniProt P06276); assay: Inhibition of human serum BuChE at 10 uM using S-butyrylthiocholine iodide as substrate preincubated for 6 mins followed by substrate addition measured up to 180 secs by Ellman's method relative to control; settings: probe S-butyrylthiocholine iodide
# Chain of BuChE (butyrylcholinesterase) (P06276 whole entry): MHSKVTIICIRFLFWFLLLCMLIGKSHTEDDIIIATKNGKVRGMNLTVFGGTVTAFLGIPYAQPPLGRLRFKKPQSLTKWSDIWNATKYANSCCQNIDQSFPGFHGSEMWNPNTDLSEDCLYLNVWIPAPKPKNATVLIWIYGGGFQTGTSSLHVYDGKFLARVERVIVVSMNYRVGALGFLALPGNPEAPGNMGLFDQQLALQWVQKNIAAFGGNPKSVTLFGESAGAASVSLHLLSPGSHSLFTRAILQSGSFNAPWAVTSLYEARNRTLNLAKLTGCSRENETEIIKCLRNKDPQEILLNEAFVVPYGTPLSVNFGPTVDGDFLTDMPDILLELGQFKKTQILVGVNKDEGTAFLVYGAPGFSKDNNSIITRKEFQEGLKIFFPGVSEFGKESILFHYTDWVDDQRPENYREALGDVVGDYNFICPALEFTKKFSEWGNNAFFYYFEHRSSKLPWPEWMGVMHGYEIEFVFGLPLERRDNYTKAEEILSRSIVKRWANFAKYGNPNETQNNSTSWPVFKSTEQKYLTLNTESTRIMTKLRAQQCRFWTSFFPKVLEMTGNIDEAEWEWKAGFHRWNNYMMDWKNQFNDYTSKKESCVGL
# Acetylcholinesterase [2] = target: T1, Acetylcholinesterase (Homo sapiens, UniProt P22303); assay: Inhibition of human erythrocyte AChE using acetylthiocholine iodide as substrate preincubated for 6 mins followed by substrate addition measured up to 180 secs by Ellman's method
# T1 sequence (P22303 whole entry): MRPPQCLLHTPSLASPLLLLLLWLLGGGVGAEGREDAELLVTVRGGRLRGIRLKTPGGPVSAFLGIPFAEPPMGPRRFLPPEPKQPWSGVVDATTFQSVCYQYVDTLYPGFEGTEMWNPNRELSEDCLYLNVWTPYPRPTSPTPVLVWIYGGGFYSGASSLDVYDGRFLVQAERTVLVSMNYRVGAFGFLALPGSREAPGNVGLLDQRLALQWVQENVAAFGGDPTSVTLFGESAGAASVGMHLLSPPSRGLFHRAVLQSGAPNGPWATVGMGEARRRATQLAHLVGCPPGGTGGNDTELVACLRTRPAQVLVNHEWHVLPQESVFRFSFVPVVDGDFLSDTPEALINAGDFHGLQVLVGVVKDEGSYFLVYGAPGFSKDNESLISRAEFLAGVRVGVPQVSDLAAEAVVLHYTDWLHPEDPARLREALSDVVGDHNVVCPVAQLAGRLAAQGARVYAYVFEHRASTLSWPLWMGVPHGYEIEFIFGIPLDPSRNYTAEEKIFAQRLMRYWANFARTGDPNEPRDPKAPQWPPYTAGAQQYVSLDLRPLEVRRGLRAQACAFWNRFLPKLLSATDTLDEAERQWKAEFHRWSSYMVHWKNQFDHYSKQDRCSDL
# Acetylcholinesterase [3] = target: T1, Acetylcholinesterase; assay: Inhibition of human erythrocyte AChE at 10 uM using acetylthiocholine iodide as substrate preincubated for 6 mins followed by substrate addition measured up to 180 secs by Ellman's method relative to control
# Mus musculus [4] = assay: Toxicity in Kunming mouse assessed as reduction in body weight at 1000 mg/kg, po observed continuously for the first 4 hrs and intermittently for next 24 hrs and occasionally thereafter for 14 days; type: organism-based; settings: in vivo
# [5] = Metal chelating activity assessed as compound-Zn2+ complex formation at 25 uM by UV-Vis spectrophotometry
# Mus musculus [6] = assay: Nephrotoxicity in Kunming mouse at 1000 mg/kg, po measured at day 14 by microscopic analysis; type: toxicity, organism-based; settings: in vivo
# Acetylcholinesterase [7] = target: T1, Acetylcholinesterase; assay: Potency index, ratio of donepenzil IC50 to compound IC50 for human erythrocyte AChE
# [8] = Metal chelating activity assessed as compound-Fe2+ complex formation at 25 uM by UV-Vis spectrophotometry
# Mus musculus [9] = assay: Hepatotoxicity in Kunming mouse at 1000 mg/kg, po measured at day 14 by microscopic analysis; type: toxicity, organism-based; settings: in vivo
# Mus musculus [10] = assay: Antialzheimer activity in scopolamine induced Kunming mouse cognitive deficit model assessed as latency time at 20.6 mg/kg, po treated for 1 hr followed by training trial and subsequent addition of scopolamine at 30 mins post trial measured for 24 hrs interval; type: functional
# Acetylcholinesterase [11] = target: T1, Acetylcholinesterase; assay: Mixed type inhibition of human erythrocyte AChE at 12.5 to 50 nM using acetylthiocholine iodide as substrate preincubated for 6 mins followed by substrate addition measured up to 180 secs by Lineweaver-Burk plot analysis
# [12] = Metal chelating activity assessed as compound-Cu2+ complex formation at 25 uM by UV-Vis spectrophotometry
# Mus musculus [13] = assay: Antialzheimer activity in scopolamine induced Kunming mouse cognitive deficit model assessed as latency time at 5.2 mg/kg, po treated for 1 hr followed by training trial and subsequent addition of scopolamine at 30 mins post trial measured for 24 hrs interval; type: functional
# Mus musculus [14] = assay: Antialzheimer activity in scopolamine induced po dosed Kunming mouse cognitive deficit model assessed as reduction in number of errors treated for 1 hr followed by training trial and subsequent addition of scopolamine at 30 mins post trial measured for 24 hrs interval; type: functional, organism-based
# Mus musculus [15] = assay: Toxicity in Kunming mouse assessed as death at 1000 mg/kg, po observed continuously for the first 4 hrs and intermittently for next 24 hrs and occasionally thereafter for 14 days; type: organism-based; settings: in vivo
# [16] = Metal chelating activity assessed as compound-Fe3+ complex formation at 25 uM by UV-Vis spectrophotometry
# Mus musculus [17] = assay: Antialzheimer activity in scopolamine induced po dosed Kunming mouse cognitive deficit model assessed as reduction in latency treated for 1 hr followed by training trial and subsequent addition of scopolamine at 30 mins post trial measured for 24 hrs interval; type: functional, organism-based
# [18] = Metal chelating activity assessed as association constant for compound-Fe3+ complex formation by Job's plot analysis
# [19] = Cytotoxicity against human SH-SY5Y cells assessed as cell viability at 50 uM after 24 hrs by MTT assay relative to control; type: cell-based; settings: read-out: Activity
# [20] = Cytotoxicity against human SH-SY5Y cells assessed as cell viability at 12.5 uM after 24 hrs by MTT assay relative to control; type: cell-based; settings: read-out: Activity
# Mus musculus [21] = assay: Toxicity in Kunming mouse assessed as change in water consumption at 1000 mg/kg, po observed continuously for the first 4 hrs and intermittently for next 24 hrs and occasionally thereafter for 14 days; type: organism-based; settings: in vivo
# in vitro = settings: PAMPA
# Description: Effective permeability at 25 ug/ml after 16 hrs by PAMPA
# Mus musculus [22] = assay: Toxicity in Kunming mouse assessed as change in food consumption at 1000 mg/kg, po observed continuously for the first 4 hrs and intermittently for next 24 hrs and occasionally thereafter for 14 days; type: organism-based; settings: in vivo
# Mus musculus [23] = assay: Antialzheimer activity in scopolamine induced Kunming mouse cognitive deficit model assessed as latency time at 10.3 mg/kg, po treated for 1 hr followed by training trial and subsequent addition of scopolamine at 30 mins post trial measured for 24 hrs interval; type: functional
# Acetylcholinesterase [24] = target: T1, Acetylcholinesterase; assay: […] inhibition of human erythrocyte AChE using acetylthiocholine iodide as substrate preincubated for 6 mins followed by substrate addition measured up to 180 secs by Lineweaver-Burk plot analysis
# Mus musculus [25] = assay: Cardiotoxicity in Kunming mouse at 1000 mg/kg, po measured at day 14 by microscopic analysis; type: toxicity, organism-based; settings: in vivo
# [26] = Cytotoxicity against human SH-SY5Y cells assessed as cell viability at 25 uM after 24 hrs by MTT assay relative to control; type: cell-based; settings: read-out: Activity
# [27] = Cytotoxicity against human SH-SY5Y cells assessed as cell viability at 100 uM after 24 hrs by MTT assay relative to control; type: cell-based; settings: read-out: Activity
smiles,measurement,setting,value
Cc1cc(=O)oc2cc(OCCSC(=S)N3CCCC3)ccc12,"inhibition at 0.05 h, 10 µM",[1],< 5%
same,IC50,Acetylcholinesterase [2],890 nM
Cc1cc(=O)oc2cc(OCCSC(=S)N3CCC(O)CC3)ccc12,inhibition,Acetylcholinesterase [3],< 5%
same,"inhibition at 0.05 h, 10 µM",[1],< 5%
Cc1cc(=O)oc2cc(OCCCSC(=S)N3CCCCC3)ccc12,"inhibition at 0.05 h, 10 µM",[1],31.2%
same,IC50,Acetylcholinesterase [2],290 nM
Cc1cc(=O)oc2cc(OCCCCCCCCSC(=S)N3CCCCC3)ccc12,inhibition,Acetylcholinesterase [3],< 5%
same,"inhibition at 0.05 h, 10 µM",[1],< 5%
Cc1cc(=O)oc2cc(OCCCCSC(=S)N3CCCCC3)ccc12,Activity,Mus musculus [4],Non-Toxic
same,Activity,[5],inactive
same,Activity,Mus musculus [6],Non-Toxic
same,Ratio IC50,Acetylcholinesterase [7],1.5
same,Activity,[8],inactive
same,Activity,Mus musculus [9],Non-Toxic
same,Time,Mus musculus [10],192 s
same,inhibition,Acetylcholinesterase [11],Active
same,Activity,[12],inactive
same,Time,Mus musculus [13],151 s
same,Activity,Mus musculus [14],Dose-dependent effect
same,Activity,Mus musculus [15],Non-Toxic
same,Activity,[16],Active
same,Activity,Mus musculus [17],Dose-dependent effect
same,Ka,[18],1.69 ×10³ /M
same,"viability at 24 h, 50 µM",[19],90.1%
same,"viability at 24 h, 12.5 µM",[20],99.2%
same,Activity,Mus musculus [21],Non-Toxic
same,"Papp at 16 h, 25 ug/ml",in vitro,9.21 ×10⁻⁶ cm/s
same,Activity,Mus musculus [22],Non-Toxic
same,Time,Mus musculus [23],182 s
same,Ki,Acetylcholinesterase [24],37.1 nM
same,"inhibition at 0.05 h, 10 µM",[1],15.3%
same,Activity,Mus musculus [25],Non-Toxic
same,"viability at 24 h, 25 µM",[26],101%
same,IC50,Acetylcholinesterase [2],27 nM
same,"viability at 24 h, 100 µM",[27],80.3%
Cc1cc(=O)oc2cc(OCCSC(=S)N3CCOCC3)ccc12,inhibition,Acetylcholinesterase [3],11%
same,"inhibition at 0.05 h, 10 µM",[1],< 5%
Cc1cc(=O)oc2cc(OCCSC(=S)N3CCN(C)CC3)ccc12,inhibition,Acetylcholinesterase [3],36.8%
same,"inhibition at 0.05 h, 10 µM",[1],< 5%
Cc1cc(=O)oc2cc(OCCSC(=S)N3CCN(C4CC4)CC3)ccc12,inhibition,Acetylcholinesterase [3],18.7%
same,"inhibition at 0.05 h, 10 µM",[1],< 5%
Cc1cc(=O)oc2cc(OCCCCCSC(=S)N3CCCCC3)ccc12,"inhibition at 0.05 h, 10 µM",[1],10.1%
same,IC50,Acetylcholinesterase [2],210 nM
Cc1cc(=O)oc2cc(OCCSC(=S)N(CCO)CCO)ccc12,inhibition,Acetylcholinesterase [3],34.5%
same,"inhibition at 0.05 h, 10 µM",[1],< 5%
Cc1cc(=O)oc2cc(OCCSC(=S)N3CCC(N4CCCCC4)CC3)ccc12,"inhibition at 0.05 h, 10 µM",[1],24.3%
same,IC50,Acetylcholinesterase [2],1160 nM
Cc1cc(=O)oc2cc(OCCSC(=S)N(C)C)ccc12,"inhibition at 0.05 h, 10 µM",[1],< 5%
same,IC50,Acetylcholinesterase [2],10600 nM
Cc1cc(=O)oc2cc(OCCSC(=S)N3CCCCC3)ccc12,"inhibition at 0.05 h, 10 µM",[1],37.2%
same,IC50,Acetylcholinesterase [2],470 nM
Cc1cc(=O)oc2cc(OCCCCCCSC(=S)N3CCCCC3)ccc12,"inhibition at 0.05 h, 10 µM",[1],6.21%
same,IC50,Acetylcholinesterase [2],610 nM
Cc1cc(=O)oc2cc(OCCSC(=S)N3CCN(c4ncccn4)CC3)ccc12,inhibition,Acetylcholinesterase [3],12.3%
same,"inhibition at 0.05 h, 10 µM",[1],< 5%
Cc1cc(=O)oc2cc(OCCSC(=S)N3CCN(C(C)C)CC3)ccc12,"inhibition at 0.05 h, 10 µM",[1],28.1%
same,IC50,Acetylcholinesterase [2],1990 nM
CCN(CC)C(=S)SCCOc1ccc2c(C)cc(=O)oc2c1,"inhibition at 0.05 h, 10 µM",[1],10.9%
same,IC50,Acetylcholinesterase [2],1940 nM
